Results as given in patent US20090148850A1, “Methods for identifying modulators of P2RY14” (priority 2007, published 2009).

Legend:
[1] = system: simian (chimpanzee) P2RY14; experiment: FLIPR whole cell Ca2+ agonist assay, HEK cells expressing simian (chimpanzee) P2RY14 and Gqi5; assay type: cell-based
From the text: Stable HEK clonal cell lines expressing P2RY14 and the chimeric G protein Gqi5 were constructed. The chimeric Gqi5 forces the coupling of P2RY14 through the Gq (calcium) pathway and allows for monitoring of calcium signaling using a calcium binding fluorescent dye and a FLIPR (fluorometric imaging plate reader, MDS Sciex). Vector pCEP4 comprising the chimeric Gqi5 was obtained from Molecular Devices, Sunnyvale, Calif. (Cat. No. RD-PGQI5).
The simian (chimpanzee) P2RY14 nucleic acid fragment was synthesized based upon the Ensembl Gene ID ENSPTRG00000030093 by Bio S & T, Montreal, Quebec, Canada, to be flanked with KpnI and NotI restriction enzyme sites. […] The DNA fragment was digested with KpnI and NotI and then cloned into a pcDEF3 vector previously digested with KpnI and NotI to place the DNA fragment in the proper orientation downstream of the human EF-1a promoter. The nucleic acid encoding the simian P2RY14 was under the control of the human EF-1a promoter.
Cells were grown in DMEM medium containing 25 mM HEPES, pH 7.4 and 10% FBS, 50 units/ml penicillin/50 μg/ml streptomycin, 2 mM glutamine and 1 mM sodium pyruvate at 37° C. in humidified air containing 5% CO2. Two days post-transfection, cells were grown under selection in the DMEM medium as indicated above and supplemented with 200 μg/ml Hygromycin B and 250 μg/ml geneticin.
Cells were incubated overnight at 37° C. and 5% CO2 to form a monolayer. On the following day, 30 μl of fluorescent no-wash dye was added to the cell monolayer and the plate was incubated for 60 minutes at 37° C., 5% CO2.
For agonist assays, 6.12 μl of 10× agonist solution was added to the cell/dye incubation and Ca^2+ signaling was monitored by FLIPR. For antagonist assays, 250 nl of compound in 100% DMSO was added to cell/dye mixture; following a 20 minute incubation at room temperature, 6.12 μl of 10× agonist solution at EC80 in HBSS containing 20 mM Hepes was added to cells and Ca^2+ signaling was monitored by FLIPR. Quantitation of the % stimulation or inhibition of Ca^2+ signaling by agonist or antagonist, respectively, was calculated using the Max-Min fluorescent signal detected.

P2RY14 = target: T1, P2RY14 (Homo sapiens, UniProt Q15391); design: host or cells: yeast and HEK-293 cells (Chambers et al., J. Biol. Chem. 275: 10767-10771 (2000)); conditions: yeast and mammalian cells, Chambers et al. 2000; cited from earlier work
T1 sequence (Q15391 1-338): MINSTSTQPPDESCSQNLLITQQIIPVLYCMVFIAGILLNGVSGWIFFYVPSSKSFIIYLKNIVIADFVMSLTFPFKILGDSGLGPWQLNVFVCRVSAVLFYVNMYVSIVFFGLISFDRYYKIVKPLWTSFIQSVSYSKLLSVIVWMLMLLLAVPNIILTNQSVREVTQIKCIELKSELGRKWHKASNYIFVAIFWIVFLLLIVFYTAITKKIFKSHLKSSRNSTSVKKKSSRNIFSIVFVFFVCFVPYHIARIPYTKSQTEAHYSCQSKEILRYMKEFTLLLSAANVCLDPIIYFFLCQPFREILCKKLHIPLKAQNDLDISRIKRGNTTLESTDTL

[2] = system: HEK cells not expressing P2RY14; experiment: FLIPR Ca2+ release in HEK cells not expressing P2RY14 (specificity); assay type: cell-based

For `O=c1ccn([C@@H]2O[C@H](COP(=O)(O)O)[C@@H](O)[C@H]2O)c(=O)[nH]1` [UMP], the “activation of P2RY14 (Ca2+ signaling)” value [1] is listed as “activated”, the “activation of P2RY14” value (P2RY14) is listed as “unable to activate” and the “Ca2+ release in cells not expressing P2RY14” value [2] is listed as “do not stimulate Ca^2+ release”.
